# Earlier results, collected in patent US20210113495A1, “METHOD OF TREATING EPILEPSY OR EPILEPTIC ENCEPHALOPATHY WITH FENFLURAMINE IN PATIENTS WITHOUT PULMONARY HYPERTENSION” (ZOGENIX INTERNATIONAL LIMITED, priority 2018, published 2021).
# How the values were obtained:
# [1] = system: children with refractory epilepsy; details: dose of 0.5 to 1 mg/kg/day
# [2] = system: child suffering pattern sensitivity-induced seizures; details: one child, seizures resistant to anticonvulsive treatment
# [3] = system: self-induced photosensitive seizures; details: four cases
# patients with PH [4] = system: patients with PH
# [5] = system: pulmonary arterial hypertension patients; details: PAH patients who had started treatment with bosentan
# patients with PH [6] = details: short-term infusion
# [7] = initial right heart catheterization, resting, 15 women who had used fenfluramine, mean (SD)
structure (smiles),measurement,setting,value
"CCNC(C)Cc1cccc(C(F)(F)F)c1 (racemic) [fenfluramine, (RS)—N-ethyl-1-[3-(trifluoromethyl)phenyl]propan-2-amine]",number of seizures experienced by the patients,[1],reduction in the number of seizures
same,effect on self-induced seizures,[2],successfully terminated these self-induced seizures
same,response of self-induced photosensitive seizures,[3],responded to treatment with fenfluramine
same,users with close temporal relation between fenfluramine use and development of exertional dyspnoea,patients with PH [4]; 10 of 15 women with PH who had used fenfluramine,67%
same,"overall survival, fenfluramine users vs controls","patients with PH [4]; PH patients, transplant recipients excluded",no significant difference in overall survival
same,pulmonary artery pressure (PAP),patients with PH [4]; [7],57 (9) mm Hg
same,pulmonary vascular resistance (PVR),patients with PH [4]; [7],29 (10) U/m^2
COc1ccccc1Oc1c(NS(=O)(=O)c2ccc(C(C)(C)C)cc2)nc(-c2ncccn2)nc1OCCO [bosentan],patients alive at 2 years,[5],89%
CCCCC[C@H](O)/C=C/[C@@H]1[C@H]2C/C(=C/CCCC(=O)O)O[C@H]2C[C@H]1O [epoprostenol],mean fall in PVR compared with control values,"patients with PH [6]; 10 responding patients, mean (SD)",24 (15%)
same,vasodilator response,patients with PH [6]; 15 women with PH who had used fenfluramine,significant vasodilator response in 10 patients
